Test results taken from patent publication US6608082B1, “Treatment of erectile dysfunction using isoquinoline compound melanocortin receptor ligands” (Lion Bioscience AG, priority 1998, dated 2003).

Columns and labels:
[1] = tested on: arachidonic acid induced dermal inflammation; test: Arachidonic acid induced dermal inflammation (ear thickness); assay type: in vivo, Female BALB/c mice
Procedure: Female BALB/c mice (17-22 g) were used and administered the test isoquinoline compounds or positive control compounds 30 to 60 min prior to topical application of arachidonic acid. Indomethacin and HP 228 were used as positive controls. Compounds were administered orally (p.o.) or intraperitoneally (i.p.). Initial ear thickness (left and right) was measured using spring loaded micro-calipers. Arachidonic acid was applied to mice anesthetized with a cocktail of ketamine/xylazine (7.0 mg/ml and 0.6 mg/ml, respectively) administered i.p. (300 μl/mouse). Utilizing a micro-pipette, 20 μl of arachidonic acid solution (100 mg/ml ethanol or acetone) was applied to the right ear (10 μl to inner and 10 μl to outer surfaces of […] for a total of 2 mg arachidonic acid per right ear), and 20 μl of vehicle (ethanol or acetone) was applied to the left ear. Mice were returned to their cages to recover. Mice were again anesthetized 50 min after arachidonic acid application and their ears measured.
Dermal inflammation was determined by subtracting the difference of the vehicle treated left ear (L60−L0) from the difference of the arachidonic acid treated right ear (R60−R0). Ear thickness measurements were averaged for each group, and the responses in the vehicle treated control group (Cr; saline or PBS) were subtracted from the response noted in the isoquinoline compound treated group (Tr) to give the relative inflammatory response for each treatment group compared to the control group. The percent inhibition is defined by the equation: % inhibition=(Cr−Tr)/(Cr)×100.

[2] = Body weight and food consumption after i.p. administration; assay type: in vivo, Sprague-Dawley rats; details: rats, 5 mg/kg i.p., 18 hours after injection; FIG. 6
From the text: Adult male Sprague-Dawley rats (175-225 g) were used to assess the effect of isoquinoline compounds on food uptake and body weight. Baseline body weight and food consumption measurements were taken for 3 days prior to start of the study (Day 0). On Day −1, the food was taken away from the animals at 5:00 PM. The next morning (Day 0), body weight measurements were taken, and the animals were divided into treatment groups with 6 animals in each group. The treatment groups were saline control, HP 228 positive control and test isoquinoline compounds. Saline was administered i.p. at 1 ml/kg. HP 228 and test isoquinoline compounds were administered i.p. at 5 mg/kg. The injections were initiated at 2:00 PM on Day 0.
Body weight and food consumption measurements were taken at 9 hr (Day 0; 11:00 PM) and at 18 hr (Day 1, 8:00 AM) after injection. At the end of the study, all evaluated parameters (9 and 18 hour body weight and food consumption) were analyzed by standard statistical methods. Significance (P<0.05) was determined by one-way ANOVA, ANOVA for repeated measures, or Student's t-test.
The level of reduction was similar to that seen with HP 228.

[3] = tested on: IL-10; test: Increasing levels of IL-10 in mice (plasma ELISA); assay type: in vivo; details: IP, mouse plasma, 90 or 105 minutes; for % IL-10 Induction, IP 30: 30 μg per mouse; for % IL-10 Induction, IP 300: 300 μg per mouse
Procedure: Isoquinoline compounds were administered intraperitoneally to mice in doses of 30, 100 or 300 μg/mouse or orally in doses of 300 or 600 μg/mouse. Levels of IL-10 were measured 90 or 105 minutes after administration as indicated. Samples were collected and diluted, when appropriate, as described in Example VI. A 100 μl sample of plasma was assayed by ELISA for IL-10. Briefly, ELISA plates were coated with rat anti-mouse IL-10 monoclonal antibody (Pharmingen; San Diego Calif.). Samples or known concentrations of IL-10 were added to the coated plates and incubated for 2 hr at 37° C. Plates were washed and incubated with biotinylated rat anti-mouse IL-10 (R&D Systems; Minneapolis Minn.) for 1 hr at 37° C. Plates were washed and incubated with streptavidin-HRP 30 min at 37° C., and HRP activity was detected with hydrogen peroxide and TMB using standard immunoassay procedures.

[4] = molecular target: T1, MCR-5 (Homo sapiens, UniProt P33032); test: Melanocortin receptor binding assay, competition with 125I-HP 467, HEK 293 cells expressing hMCR-5; details: binding to MCR-5, HEK 293 cells; read-out: MC-5 IC50
T1 construct: expressed in transfected cells; host or cells: HEK 293
From the text: (§1) All cell culture media and reagents were obtained from GibcoBRL (Gaithersburg Md.), except for COSMIC CALF SERUM (HyClone; Logan Utah). HEK-293 cell lines were transfected with the human MC receptors hMCR-1, hMCR-3, and hMCR-4 (Gantz et al., Biochem. Biophys. Res. Comm. 200:1214-1220 (1994); Gantz et al., J. Biol. Chem. 268:8246-8250 (1993); Gantz et al. J. Biol. Chem. 268:15174-15179 (1993); Haskell-Leuvano et al., Biochem. Biophys. Res. Comm. 204:1137-1142 (1994); each of which is incorporated herein by reference). Vectors for construction of an hMCR-5 expressing cell line were obtained, and a line of HEK 293 cells expressing hMCR-5 was constructed (Gantz, supra, 1994). hMCR-5 has been described previously (Franberg et al., Biochem. Biophys. Res. Commun. 236:489-492 (1997); Chowdhary et al., Cytogenet. Cell Genet. 68:1-2 (1995); Chowdhary et al., Cytogenet. Cell Genet. 68:79-81 (1995), each of which is incorporated herein by reference). HEK 293 cells were maintained in DMEM, 25 mM HEPES, 2 mM glutamine, non-essential amino acids, vitamins, sodium pyruvate, 10% COSMIC CALF SERUM, 100 units/ml penicillin, 100 μg/ml streptomycin and 0.2 mg/ml G418 to maintain selection.
(§2) Before assaying, cells were washed once with phosphate buffered saline (“PBS”; without Ca^2+ and Mg^2+), and stripped from the flasks using 0.25% trypsin and 0.5 mM EDTA. Cells were suspended in PBS, 10% COSMIC CALF SERUM and 1 mM CaCl2. Cell suspensions were prepared at a density of 2×10^4 cells/ml for HEK 293 cells expressing hMCR-3, hMCR-4 or hMCR-5, and 1×10^5 cells/ml for HEK 293 cells expressing hMCR-1. Suspensions were placed in a water bath and allowed to warm to 37° C. for 1 hr.
(§3) Binding assays were performed in a total volume of 250 μl for HEK 293 cells. Control and test compounds were dissolved in distilled water. ^125I-HP 467 (50,000 dpm) (2000 Ci/mmol) (custom labeled by Amersham; Arlington Heights Ill.) was prepared in 50 mM Tris, pH 7.4, 2 mg/ml BSA, 10 mM CaCl2, 5 mM MgCl2, 2 mM EDTA and added to each tube. To each tube was added 4×10^3 HEK 293 cells expressing hMCR-3, hMCR-4 or hMCR-5, or 2×10^4 cells expressing hMCR-1. Assays were incubated for 2.5 hr at 37° C.
(§4) GF/B filter plates were prepared by soaking for at least one hour in 5 mg/ml BSA and 10 mM CaCl2. Assays were filtered using a Brandel 96-well cell harvester (Brandel Inc.; Gaithersburg, Md.). The filters were washed four times with cold 50 mM Tris, pH 7.4, the filter plates were dehydrated for 2 hr and 35 μl of MICROSCINT was added to each well. Filter plates were counted using a Packard Topcount (Packard Instrument Co.) and data analyzed using GraphPad PRISM v2.0 (GraphPad Software Inc.; San Diego Calif.) and Microsoft EXCEL v5.0a (Microsoft Corp.; Redmond Wash.).
(§5) To assay isoquinoline compounds, binding assays were performed in duplicate in a 96 well format. HP 467 was prepared in 50 mM Tris, pH 7.4, and ^125I-HP 467 was diluted to give 100,000 dpm per 50 μl. An isoquinoline compound, synthesized as described in Example I, was added to the well in 25 μl aliquots. A 25 μl aliquot of ^125I-HP 467 was added to each well. A 0.2 ml aliquot of suspended cells was added to each well to give the cell numbers indicate above, and the cells were incubated at 37° C. for 2.5 hr. Cells were harvested on GF/B filter plates as described above and counted.
(§6) Some of the isoquinoline compounds were further tested for binding to MCR-3 and MCR-5.

[5] = molecular target: T2, MCR-3 (Homo sapiens, UniProt P41968); test: Melanocortin receptor binding assay, competition with 125I-HP 467, HEK 293 cells expressing hMCR-3; details: binding to MCR-3, HEK 293 cells; read-out: MC-3 IC50
T2 construct: expressed in transfected cells; host or cells: HEK 293
From the text: as §1, §2, §3, §4, §5, §6

[6] = tested on: TNF-α; test: Reduction of lipopolysaccharide-induced tumor necrosis factor levels in mice; assay type: in vivo, BALB/c female mice; details: IP, plasma 90 or 105 minutes after LPS, mean ± SEM; for % TNF-α Inhibtion, IP 30: 30 μg per mouse; for % TNF-α Inhibtion, IP 300: 300 μg per mouse
Procedure: BALB/c female mice weighing approximately 20 g were placed into a control group and a treated group. Five mg/kg of LPS in 0.9% saline was administered (100 μl to give 100 μg LPS per mouse) by intraperitoneal (IP) injection to all mice. Mice in the treatment group received either 30, 100, 300 or 600 μg of various isoquinoline compounds per mouse in a volume of 100 μl of PBS. Control mice received 100 μl of saline alone. One minute after initial injections all mice received the LPS injection. As a positive control, 100 μg of HP 228 was injected per mouse.
Blood samples were collected from the orbital sinus of treated and control mice 90 minutes or 105 minutes after LPS administration. The plasma was separated by centrifugation at 3000×g for 5 min and stored at −20° C. Samples were thawed and diluted, if TNF-α concentration was greater than 3200 pg/ml, with PBS containing 1% bovine serum albumin, 10% donor horse serum, 1% normal mouse serum, 0.05% TWEEN-20 and 0.05% thimerosal. A 100 μl sample of plasma was assayed by ELISA for TNF-α. Briefly, ELISA plates were coated with hamster anti-mouse TNF-α antibody (Genzyme; Cambridge Mass.). Samples or known concentrations of TNF-α were added to the coated plates and incubated for 2 hr at 37° C. Plates were washed and subsequently incubated with biotinylated rabbit anti-mouse TNG-α for 1 hr at 37° C. Plates were washed and incubated with streptavidin-HRP for 1 hr at 37° C., and HRP activity was detected with hydrogen peroxide and o-phenylenediamine (OPD) using standard immunoassay procedures.
The mean (±SEM) TNF-α level in five mice from each group was determined and the percent reduction in TNF-α levels was calculated.

[7] = molecular target: T3, MCR-1 (Homo sapiens, UniProt Q01726); test: Melanocortin receptor binding assay, competition with 125I-HP 467, HEK 293 cells expressing hMCR-1; details: 10 μM isoquinoline compound
T3 construct: expressed in transfected cells; host or cells: HEK 293
Summary of the method: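 Test compounds compete on intact HEK 293 cells carrying hMCR-1 (2×10^4 per tube) or hMCR-4 (4×10^3 per tube), suspended in PBS, 10% calf serum, 1 mM CaCl2.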

T3 sequence (Q01726 whole entry): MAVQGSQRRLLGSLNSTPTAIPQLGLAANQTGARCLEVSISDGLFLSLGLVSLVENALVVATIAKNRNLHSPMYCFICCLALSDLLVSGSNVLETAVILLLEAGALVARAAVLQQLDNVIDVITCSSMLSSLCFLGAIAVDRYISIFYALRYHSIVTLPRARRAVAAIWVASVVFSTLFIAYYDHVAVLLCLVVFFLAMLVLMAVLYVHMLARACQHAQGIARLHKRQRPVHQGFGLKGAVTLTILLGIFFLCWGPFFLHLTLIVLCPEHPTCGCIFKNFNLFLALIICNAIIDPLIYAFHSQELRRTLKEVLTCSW
T2 sequence (P41968 whole entry): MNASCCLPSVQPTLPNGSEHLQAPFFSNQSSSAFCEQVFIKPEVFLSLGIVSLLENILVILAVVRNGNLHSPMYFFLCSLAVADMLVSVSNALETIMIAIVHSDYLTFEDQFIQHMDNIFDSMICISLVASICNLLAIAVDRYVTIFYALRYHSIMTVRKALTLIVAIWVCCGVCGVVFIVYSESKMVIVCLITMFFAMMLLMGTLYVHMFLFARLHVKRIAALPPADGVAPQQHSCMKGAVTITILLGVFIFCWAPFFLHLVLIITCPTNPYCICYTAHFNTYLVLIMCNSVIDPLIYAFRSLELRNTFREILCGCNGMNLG
T1 sequence (P33032 whole entry): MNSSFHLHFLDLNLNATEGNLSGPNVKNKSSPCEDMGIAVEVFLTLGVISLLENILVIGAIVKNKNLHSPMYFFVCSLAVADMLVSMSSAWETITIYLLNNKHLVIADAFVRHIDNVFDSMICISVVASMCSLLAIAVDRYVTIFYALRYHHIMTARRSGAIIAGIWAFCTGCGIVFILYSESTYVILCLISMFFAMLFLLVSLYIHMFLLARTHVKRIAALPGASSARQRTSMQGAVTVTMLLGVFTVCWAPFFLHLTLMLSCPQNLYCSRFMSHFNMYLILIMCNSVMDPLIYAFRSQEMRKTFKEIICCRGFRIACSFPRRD

Q: Which “inhibition of arachidonic acid induced dermal inflammation” value (“inhibition” for short) ([1]; 100 μg/mouse administered intraperitoneally, FIG. 4) does the source give for “Ac-Nle-Gln-His-(D)Phe-Arg-(D)Trp-Gly-NH2 [HP 228, reference compound]” here?
A: inhibition of arachidonic acid induced dermal inflammation

Q: And the “inhibition” value ([1]; administered intraperitoneally, TRG 2405-241 300 μg/mouse, HP 228 100 μg/mouse, FIG. 3)?
A: inhibition of arachidonic acid induced dermal inflammation

Q: And the “reduction in the level of arachidonic acid-induced dermal inflammation” value ([1]; intraperitoneally, HP 228 100 μg/mouse, TRG 2409-2 or TRG 2409-14 100 or 300 μg/mouse, FIG. 5)?
A: reduction

Q: And the food consumption [2]?
A: reduction

Q: And the weight gain [2]?
A: reduction

Q: Which “% IL-10 Induction, IP 30” value [3] does the source give for `CCNc1ccc(C2C(CNC3CCCC3)c3ccccc3CN2CCCCC(CN)NC)cc1` (stereo not drawn) [TRG 2407-67] here?
A: −3 ± 15%

Q: What about the “% IL-10 Induction, IP 300” value [3] of the same compound?
A: 29 ± 8%

Q: And the IC50 [4]?
A: 4.16 µM

Q: And the IC50 [5]?
A: 20.9 µM

Q: What about the “% TNF-α Inhibtion, IP 30” value [6] of the same compound?
A: 8 ± 14%

Q: And the “% TNF-α Inhibtion, IP 300” value [6]?
A: 73 ± 3 %

Q: Which “% IL-10 Induction, IP 30” value [3] does the source give for `CNC(CN)CCCCN1Cc2ccccc2C(CNC2CCCCC2)C1c1ccc(OC)c(S(=O)(=O)O)c1` (stereo not drawn) [TRG 2405-268] here?
A: −3 ± 16%

Q: And the “% IL-10 Induction, IP 300” value [3]?
A: 6 ± 17%

Q: And the “% Disp. of 125I-HP 467 (first of duplicate)” value ([7]; HEK 293 cells expressing MCR-1, duplicate 1)?
A: 0%

Q: And the “% Disp. of 125I-HP 467 (second of duplicate)” value ([7]; HEK 293 cells expressing MCR-1, duplicate 2)?
A: 3.6%

Q: And the “% TNF-α Inhibtion, IP 30” value [6]?
A: −58 ± 18%

Q: What about the “% TNF-α Inhibtion, IP 300” value [6] of the same compound?
A: 9 ± 23%

Q: Which “inhibition” value ([1]; administered orally, TRG 2405-241 600 μg/mouse, indomethacin 1 mg/mouse, FIG. 2) does the source give for `COc1ccc2c(c1)c(CC(=O)O)c(C)n2C(=O)c1ccc(Cl)cc1` [indomethacin, reference compound] here?
A: inhibition of arachidonic acid induced dermal inflammation
